Reference: ChEMBL document CHEMBL1201862, “PubChem BioAssay data set” (2004)
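1) Cells in 96-well plates. 2) Compound, 48 h, 5 concentrations. 3) Linear interpolation between surrounding doses. 4) Unreached endpoint = highest concentration. Abbreviation: GI50, concentration required for 50% inhibition of growth.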 The source made the active and inactive calls. Rule as the data show it: active = GI50 up to about 1.1 µM and inactive = higher.

Experiments:
Assay in all cases: inhibition of tumour cell growth, NCI panel, 48 h
IGROV-1 = tested on: IGROV-1
M14 = tested on: M14
SK-OV-3 = tested on: SK-OV-3
CCRF-CEM = tested on: CCRF-CEM
EKVX = tested on: EKVX
NCI-H226 = tested on: NCI-H226
RXF 393 = tested on: RXF 393
SK-MEL-28 = tested on: SK-MEL-28
HCT-15 = tested on: HCT-15
HOP-62 = tested on: HOP-62
M19-MEL = tested on: M19-MEL
Malme-3M = tested on: Malme-3M
SN12C = tested on: SN12C
UACC-257 = tested on: UACC-257
SNB-78 = tested on: SNB-78
OVCAR-5 = tested on: OVCAR-5

C=C(C)C1C/C=C(/C)CCCC2(CCC3=C(CC(C(=C)C)C/C=C(/C)CCC3)O2)C(=O)C1 (stereo not drawn)
GI50 (IGROV-1): > 100 µM (inactive)
GI50 (M14): > 100 µM (inactive)
GI50 (SK-OV-3): > 100 µM (inactive)
GI50 (CCRF-CEM): > 100 µM (inactive)
GI50 (EKVX): > 100 µM (inactive)
GI50 (NCI-H226): > 100 µM (inactive)
GI50 (RXF 393): > 100 µM (inactive)
GI50 (SK-MEL-28): > 100 µM (inactive)
GI50 (HCT-15): > 100 µM
GI50 (HOP-62): > 100 µM (inactive)
GI50 (M19-MEL): > 100 µM (inactive)
GI50 (Malme-3M): > 100 µM (inactive)
GI50 (SN12C): > 100 µM (inactive)
GI50 (UACC-257): > 100 µM (inactive)
GI50 (SNB-78): > 100 µM (inactive)

CC(=O)NNc1nc(C)c(C(/C=C/c2ccc(/C=C/C(=N\NC(=O)c3ccncc3)c3sc(NNC(C)=O)nc3C)cc2)=N/NC(=O)c2ccncc2)s1
GI50 (IGROV-1): > 100 µM (inactive)
GI50 (M14): 41.7 µM (inactive)
GI50 (SK-OV-3): > 100 µM (inactive)
GI50 (CCRF-CEM): > 100 µM (inactive)
GI50 (EKVX): > 100 µM (inactive)
GI50 (NCI-H226): > 100 µM (inactive)
GI50 (RXF 393): > 100 µM (inactive)
GI50 (SK-MEL-28): > 100 µM (inactive)
GI50 (HCT-15): > 100 µM
GI50 (HOP-62): > 100 µM (inactive)
GI50 (M19-MEL): > 100 µM (inactive)
GI50 (Malme-3M): > 100 µM (inactive)
GI50 (SN12C): > 100 µM (inactive)
GI50 (OVCAR-5): > 100 µM (inactive)
GI50 (UACC-257): 44.5 µM (inactive)
GI50 (SNB-78): > 100 µM (inactive)

Cc1ccc(S(=O)(=O)N/N=C(\c2nc3ccc([N+](=O)[O-])cc3[nH]c2=O)C(O)c2ccc([N+](=O)[O-])cc2)cc1 (stereo not drawn)
GI50 (IGROV-1): > 100 µM (inactive)
GI50 (M14): > 100 µM (inactive)
GI50 (SK-OV-3): > 100 µM (inactive)
GI50 (CCRF-CEM): 22.3 µM (inactive)
GI50 (EKVX): > 100 µM (inactive)
GI50 (RXF 393): > 100 µM (inactive)
GI50 (SK-MEL-28): > 100 µM (inactive)
GI50 (HCT-15): 28.2 µM
GI50 (HOP-62): 51.2 µM (inactive)
GI50 (M19-MEL): > 100 µM (inactive)
GI50 (Malme-3M): > 100 µM (inactive)
GI50 (SN12C): > 100 µM (inactive)
GI50 (OVCAR-5): 67.1 µM (inactive)
GI50 (UACC-257): > 100 µM (inactive)
GI50 (SNB-78): > 100 µM (inactive)

COC(=O)C1=C(C(=O)OC)N(C(C)C)[C@H]2C(C(=O)OC)=C(C(=O)OC)N(C(C)C)[C@@H]12
GI50 (IGROV-1): > 100 µM (inactive)
GI50 (M14): > 100 µM (inactive)
GI50 (SK-OV-3): > 100 µM (inactive)
GI50 (CCRF-CEM): > 100 µM (inactive)
GI50 (EKVX): > 100 µM (inactive)
GI50 (NCI-H226): > 100 µM (inactive)
GI50 (RXF 393): > 100 µM (inactive)
GI50 (SK-MEL-28): > 100 µM (inactive)
GI50 (HCT-15): > 100 µM
GI50 (HOP-62): > 100 µM (inactive)
GI50 (M19-MEL): > 100 µM (inactive)
GI50 (Malme-3M): > 100 µM (inactive)
GI50 (SN12C): > 100 µM (inactive)
GI50 (OVCAR-5): > 100 µM (inactive)
GI50 (UACC-257): > 100 µM (inactive)
GI50 (SNB-78): > 100 µM (inactive)

NNC(=O)/C(=C/c1ccc(Cl)cc1Cl)NC(=O)c1ccccc1
GI50 (IGROV-1): > 100 µM (inactive)
GI50 (M14): > 100 µM (inactive)
GI50 (SK-OV-3): > 100 µM (inactive)
GI50 (CCRF-CEM): 79.8 µM (inactive)
GI50 (EKVX): < 0.01 µM (active)
GI50 (NCI-H226): > 100 µM (inactive)
GI50 (RXF 393): > 100 µM (inactive)
GI50 (SK-MEL-28): > 100 µM (inactive)
GI50 (HCT-15): > 100 µM
GI50 (HOP-62): > 100 µM (inactive)
GI50 (M19-MEL): > 100 µM (inactive)
GI50 (Malme-3M): > 100 µM (inactive)
GI50 (SN12C): > 100 µM (inactive)
GI50 (OVCAR-5): > 100 µM (inactive)
GI50 (UACC-257): > 100 µM (inactive)
GI50 (SNB-78): > 100 µM (inactive)

CS(=O)(=O)OCCN1CCN(C(=O)c2cccc3c(Nc4ccc(S(=O)(=O)N=C(N)N)cc4)c4ccccc4nc23)CC1
GI50 (IGROV-1): > 100 µM (inactive)
GI50 (M14): > 100 µM (inactive)
GI50 (SK-OV-3): > 100 µM (inactive)
GI50 (CCRF-CEM): > 100 µM (inactive)
GI50 (NCI-H226): > 100 µM (inactive)
GI50 (RXF 393): > 100 µM (inactive)
GI50 (SK-MEL-28): > 100 µM (inactive)
GI50 (HCT-15): > 100 µM
GI50 (HOP-62): > 100 µM (inactive)
GI50 (M19-MEL): > 100 µM (inactive)
GI50 (Malme-3M): > 100 µM (inactive)
GI50 (SN12C): > 100 µM (inactive)
GI50 (OVCAR-5): > 100 µM (inactive)
GI50 (UACC-257): > 100 µM (inactive)
GI50 (SNB-78): > 100 µM (inactive)

C=C(C)C1CC=C(C)C(O)([C@@]2(O)C[C@H](C(=C)C)CC=C2C)C1 (stereo partly drawn)
GI50 (IGROV-1): 16.6 µM (inactive)
GI50 (M14): 16.4 µM (inactive)
GI50 (SK-OV-3): 27.2 µM (inactive)
GI50 (CCRF-CEM): 20.1 µM (inactive)
GI50 (NCI-H226): > 10 µM (inactive)
GI50 (RXF 393): 13.7 µM (inactive)
GI50 (SK-MEL-28): 28.3 µM (inactive)
GI50 (HCT-15): > 10 µM
GI50 (HOP-62): 16.9 µM (inactive)
GI50 (M19-MEL): 11.5 µM (inactive)
GI50 (Malme-3M): 22.8 µM (inactive)
GI50 (SN12C): 18.3 µM (inactive)
GI50 (OVCAR-5): 24.5 µM (inactive)
GI50 (UACC-257): 19.3 µM (inactive)
GI50 (SNB-78): 30.6 µM (inactive)

Clc1cc(Cl)cc(Nc2nc3ccccc3nc2-c2cccs2)c1
GI50 (SK-OV-3): 31.3 µM (inactive)
GI50 (CCRF-CEM): > 100 µM (inactive)
GI50 (EKVX): 41.3 µM (inactive)
GI50 (NCI-H226): 40 µM (inactive)
GI50 (RXF 393): 17.1 µM (inactive)
GI50 (SK-MEL-28): > 10 µM (inactive)
GI50 (HCT-15): > 100 µM
GI50 (HOP-62): 40.4 µM (inactive)
GI50 (M19-MEL): 24.2 µM (inactive)
GI50 (Malme-3M): 39 µM (inactive)
GI50 (SN12C): 54.3 µM (inactive)
GI50 (OVCAR-5): 83.4 µM (inactive)
GI50 (UACC-257): 23.7 µM (inactive)
GI50 (SNB-78): 62.5 µM (inactive)

N#CCC(=O)NC1C2CC3CC(C2)CC1C3 (stereo not drawn)
GI50 (IGROV-1): 25.4 µM (inactive)
GI50 (M14): 19.9 µM (inactive)
GI50 (SK-OV-3): 37.4 µM (inactive)
GI50 (CCRF-CEM): 18.7 µM (inactive)
GI50 (EKVX): 18.9 µM (inactive)
GI50 (NCI-H226): 22.2 µM (inactive)
GI50 (RXF 393): 15.8 µM (inactive)
GI50 (SK-MEL-28): 19.1 µM (inactive)
GI50 (HCT-15): 17.2 µM
GI50 (HOP-62): 23.4 µM (inactive)
GI50 (M19-MEL): 24.5 µM (inactive)
GI50 (Malme-3M): 20.3 µM (inactive)
GI50 (SN12C): 16.1 µM (inactive)
GI50 (OVCAR-5): 22.1 µM (inactive)
GI50 (UACC-257): 20.9 µM (inactive)
GI50 (SNB-78): 20.5 µM (inactive)

CN1C(=O)CC(c2cccc(C3CC(=O)N(C)C3=O)n2)C1=O (stereo not drawn)
GI50 (IGROV-1): > 100 µM (inactive)
GI50 (M14): > 100 µM (inactive)
GI50 (SK-OV-3): > 100 µM (inactive)
GI50 (CCRF-CEM): > 100 µM (inactive)
GI50 (EKVX): > 100 µM (inactive)
GI50 (NCI-H226): > 100 µM (inactive)
GI50 (RXF 393): > 100 µM (inactive)
GI50 (SK-MEL-28): > 100 µM (inactive)
GI50 (HCT-15): > 100 µM
GI50 (HOP-62): > 100 µM (inactive)
GI50 (M19-MEL): > 100 µM (inactive)
GI50 (Malme-3M): > 100 µM (inactive)
GI50 (SN12C): > 100 µM (inactive)
GI50 (OVCAR-5): > 100 µM (inactive)
GI50 (UACC-257): > 100 µM (inactive)
GI50 (SNB-78): > 100 µM (inactive)

[O-][Cl+3]([O-])([O-])[O-].c1ccc(-c2csc3c4ccccc4c4ccccc4[n+]23)cc1
GI50 (IGROV-1): 3.95 µM (inactive)
GI50 (M14): 9.48 µM (inactive)
GI50 (SK-OV-3): 13.9 µM (inactive)
GI50 (CCRF-CEM): 2.25 µM (inactive)
GI50 (EKVX): 8.79 µM (inactive)
GI50 (NCI-H226): 3.1 µM (inactive)
GI50 (RXF 393): 13 µM (inactive)
GI50 (SK-MEL-28): 2.7 µM (inactive)
GI50 (HCT-15): 23.3 µM
GI50 (HOP-62): 7.1 µM (inactive)
GI50 (M19-MEL): 1.61 µM (inactive)
GI50 (Malme-3M): 1.58 µM (inactive)
GI50 (SN12C): 1.65 µM (inactive)
GI50 (OVCAR-5): 14.3 µM (inactive)
GI50 (UACC-257): 1.08 µM (active)
GI50 (SNB-78): 2.08 µM (inactive)

FC(F)(F)c1ccc2nc(Nc3ccc(Cl)c(Cl)c3)c(-c3ccccc3)nc2c1
GI50 (CCRF-CEM): 30.5 µM (inactive)
GI50 (EKVX): > 100 µM (inactive)
GI50 (NCI-H226): > 100 µM (inactive)
GI50 (RXF 393): 39.1 µM (inactive)
GI50 (SK-MEL-28): 82.8 µM (inactive)
GI50 (HCT-15): 0.659 µM
GI50 (HOP-62): > 100 µM (inactive)
GI50 (M19-MEL): 48.5 µM (inactive)
GI50 (Malme-3M): > 100 µM (inactive)
GI50 (SN12C): 75.2 µM (inactive)
GI50 (OVCAR-5): > 100 µM (inactive)
GI50 (UACC-257): 85.5 µM (inactive)
GI50 (SNB-78): 27.4 µM (inactive)

CCCCCCCC(=O)NCC(O)CNC(=O)CCCCCCC
GI50 (IGROV-1): > 100 µM (inactive)
GI50 (M14): > 100 µM (inactive)
GI50 (SK-OV-3): > 100 µM (inactive)
GI50 (CCRF-CEM): 88.1 µM (inactive)
GI50 (EKVX): > 100 µM (inactive)
GI50 (NCI-H226): > 100 µM (inactive)
GI50 (RXF 393): > 100 µM (inactive)
GI50 (HCT-15): > 100 µM
GI50 (HOP-62): > 100 µM (inactive)
GI50 (M19-MEL): > 100 µM (inactive)
GI50 (Malme-3M): > 100 µM (inactive)
GI50 (SN12C): > 100 µM (inactive)
GI50 (OVCAR-5): > 100 µM (inactive)
GI50 (UACC-257): > 100 µM (inactive)
GI50 (SNB-78): > 100 µM (inactive)
